Measurements reported in ChEMBL document CHEMBL1139896, “Synthesis, characterization, and estrogen receptor binding affinity of flavone-, indole-, and furan-estradiol conjugates” (Bioorg Med Chem Lett, 2007).

Molecular target: T1, Estrogen receptor (Homo sapiens, UniProt P03372)
T1 sequence (P03372 whole entry): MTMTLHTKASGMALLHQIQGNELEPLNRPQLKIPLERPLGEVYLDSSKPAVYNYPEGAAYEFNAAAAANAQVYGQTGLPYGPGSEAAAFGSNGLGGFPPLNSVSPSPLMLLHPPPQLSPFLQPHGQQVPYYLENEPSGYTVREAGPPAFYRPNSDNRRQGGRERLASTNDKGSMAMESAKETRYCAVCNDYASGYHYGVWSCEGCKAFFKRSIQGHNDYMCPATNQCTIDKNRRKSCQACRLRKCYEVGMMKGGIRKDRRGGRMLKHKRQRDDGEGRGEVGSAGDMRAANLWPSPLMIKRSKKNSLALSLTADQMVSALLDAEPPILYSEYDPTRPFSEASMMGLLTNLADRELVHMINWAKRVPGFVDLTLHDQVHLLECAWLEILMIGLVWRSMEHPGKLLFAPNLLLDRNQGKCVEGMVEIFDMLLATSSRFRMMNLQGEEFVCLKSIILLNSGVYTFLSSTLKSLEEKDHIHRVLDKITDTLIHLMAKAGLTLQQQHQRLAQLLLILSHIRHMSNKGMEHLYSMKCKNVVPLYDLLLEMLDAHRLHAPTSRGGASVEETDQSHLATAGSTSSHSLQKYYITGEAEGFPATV
Description: Binding affinity to ERalpha

`C[C@]12CC[C@@H]3c4ccc(O)cc4CC[C@H]3[C@@H]1CC[C@@]2(O)C#Cc1cccc2c(=O)cc(-c3ccccc3)oc12` gave a Ki of 100 nM.

In the case of `C[C@]12CC[C@@H]3c4ccc(O)cc4CC[C@H]3[C@@H]1CC[C@@]2(O)C#CCCCCC#Cc1c(-c2ccccc2)oc2ccccc2c1=O`, the Ki is reported as 63100 nM.

`COc1ccccc1-c1[nH]c2ccccc2c1C#C[C@]1(O)CC[C@H]2[C@@H]3CCc4cc(O)ccc4[C@H]3CC[C@@]21C` was tested, and the Ki was 35 nM.

For `C[C@]12CC[C@@H]3c4ccc(O)cc4CC[C@H]3[C@@H]1CC[C@@]2(O)C#Cc1c(-c2ccccc2O)[nH]c2ccccc12`, the Ki was 75 nM.

Compound `Cc1ccc(S(=O)(=O)Oc2ccc3c(C#C[C@]4(O)CC[C@H]5[C@@H]6CCc7cc(O)ccc7[C@H]6CC[C@@]54C)c(-c4ccc(OCc5ccccc5)cc4)oc3c2)cc1` has a Ki of 332 nM.

Compound `C[C@]12CC[C@@H]3c4ccc(O)cc4CC[C@H]3[C@@H]1CC[C@@]2(O)C#CCCCCC#Cc1cccc2c(=O)cc(-c3ccccc3)oc12` has a Ki of 382 nM.

`Cc1ccc(S(=O)(=O)Oc2ccc3c(C#CCCCCC#C[C@]4(O)CC[C@H]5[C@@H]6CCc7cc(O)ccc7[C@H]6CC[C@@]54C)c(-c4ccc(OCc5ccccc5)cc4)oc3c2)cc1` showed a Ki of 17900 nM.

For `C[C@]12CC[C@@H]3c4ccc(O)cc4CC[C@H]3[C@@H]1CC[C@@]2(O)C#Cc1c(-c2ccccc2)oc2ccccc2c1=O`, the Ki was 37 nM.
